Assay results published in patent US8288429B2, “2-aza-bicyclo[3.3.0]octane derivatives” (Actelion Pharmaceuticals Ltd., priority 2007, dated 2012).
Like-named read-outs stand apart in the source and are kept apart here.

Experiments:
human orexin-1 receptor = target: T1, human orexin-1 receptor (Homo sapiens, UniProt O43613); test: Intracellular calcium measurement (FLIPR), orexin-A induced response in CHO cells expressing the human orexin-1 receptor; type: cell-based; details: 3 nM orexin-A as agonist
T1 construct: expressed in transfected cells; host or cells: CHO cells (selected with G418)
T1 sequence (O43613 1-425): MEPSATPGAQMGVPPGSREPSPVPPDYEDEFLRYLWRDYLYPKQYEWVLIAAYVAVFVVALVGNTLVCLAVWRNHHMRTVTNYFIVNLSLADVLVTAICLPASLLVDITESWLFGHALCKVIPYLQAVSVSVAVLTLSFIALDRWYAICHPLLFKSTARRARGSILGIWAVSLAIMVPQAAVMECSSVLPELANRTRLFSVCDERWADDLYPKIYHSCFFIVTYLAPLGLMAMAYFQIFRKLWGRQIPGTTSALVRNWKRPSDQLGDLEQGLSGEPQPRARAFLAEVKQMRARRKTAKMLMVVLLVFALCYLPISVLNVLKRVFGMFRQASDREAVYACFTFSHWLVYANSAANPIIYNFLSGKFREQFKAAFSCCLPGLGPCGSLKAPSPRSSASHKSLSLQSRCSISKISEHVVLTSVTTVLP
Experimental: (§1) The orexin receptor antagonistic activity of the compounds of formula (I) is determined in accordance with the following experimental method.
(§2) Intracellular Calcium Measurements:
(§3) Chinese hamster ovary (CHO) cells expressing the human orexin-1 receptor and the human orexin-2 receptor, respectively, are grown in culture medium (Ham F-12 with L-Glutamine) containing 300 μg/ml G418, 100 U/ml penicillin, 100 μg/ml streptomycin and 10% heat inactivated fetal calf serum (FCS). The cells are seeded at 20,000 cells/well into 384-well black clear bottom sterile plates (Greiner). The seeded plates are incubated overnight at 37° C. in 5% CO2.
(§4) Human orexin-A as an agonist is prepared as 1 mM stock solution in MeOH: water (1:1), diluted in HBSS containing 0.1% bovine serum albumin (BSA), NaHCO3: 0.375 g/l and 20 mM HEPES for use in the assay at a final concentration of 3 nM.
(§5) Antagonists are prepared as 10 mM stock solution in DMSO, then diluted in 384-well plates using DMSO followed by a transfer of the dilutions into in HBSS containing 0.1% bovine serum albumin (BSA), NaHCO3: 0.375 g/l and 20 mM HEPES. On the day of the assay, 50 μl of staining buffer (HBSS containing 1% FCS, 20 mM HEPES, NaHCO3: 0.375 g/l, 5 mM probenecid (Sigma) and 3 μM of the fluorescent calcium indicator fluo-4 AM (1 mM stock solution in DMSO, containing 10% pluronic) is added to each well. The 384-well cell-plates are incubated for 50 min at 37° C. in 5% CO2 followed by equilibration at rt for 30-120 min before measurement.
(§6) Within the Fluorescent Imaging Plate Reader (FLIPR2 or FLIPR Tetra, Molecular Devices), antagonists are added to the plate in a volume of 10 μl/well, incubated for 10 min and finally 10 μl/well of agonist is added. Fluorescence is measured for each well at 1 second intervals, and the height of each fluorescence peak is compared to the height of the fluorescence peak induced by 3 nM orexin-A with vehicle in place of antagonist. For each antagonist, the IC50 value (the concentration of compound needed to inhibit 50% of the agonistic response) is determined. The calculated IC50 values of the compounds may fluctuate depending on the daily cellular assay performance. Fluctuations of this kind are known to those skilled in the art.

human orexin-2 receptor = target: T2, human orexin-2 receptor (Homo sapiens, UniProt O43614); test: Intracellular calcium measurement (FLIPR), orexin-A induced response in CHO cells expressing the human orexin-2 receptor; type: cell-based; details: 3 nM orexin-A as agonist
T2 construct: expressed in transfected cells; host or cells: CHO cells (selected with G418)
T2 sequence (O43614 1-444): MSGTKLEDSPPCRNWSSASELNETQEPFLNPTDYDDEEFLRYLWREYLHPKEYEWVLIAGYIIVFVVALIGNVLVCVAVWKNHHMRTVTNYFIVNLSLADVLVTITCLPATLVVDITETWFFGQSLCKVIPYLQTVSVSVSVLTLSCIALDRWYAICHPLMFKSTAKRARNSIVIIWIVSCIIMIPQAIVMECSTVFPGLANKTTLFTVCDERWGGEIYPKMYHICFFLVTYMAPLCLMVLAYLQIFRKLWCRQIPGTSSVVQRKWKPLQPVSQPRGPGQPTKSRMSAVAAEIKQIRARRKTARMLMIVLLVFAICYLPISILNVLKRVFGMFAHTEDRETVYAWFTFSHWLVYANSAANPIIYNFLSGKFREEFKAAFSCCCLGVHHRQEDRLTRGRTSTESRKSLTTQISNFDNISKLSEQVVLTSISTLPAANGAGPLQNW
Experimental: as §1, §2, §3, §4, §5, §6

[1] = measured using FLIPR2, read-out: OX1 IC50
[2] = measured using FLIPR2, read-out: OX2 IC50
[3] = measured using FLIPR Tetra (footnote 1), read-out: OX1 IC50
[4] = measured using FLIPR Tetra (footnote 1), read-out: OX2 IC50

| Structure (SMILES) | IC50 (human orexin-1 receptor; [1]) [µM] | IC50 (human orexin-2 receptor; [2]) [µM] | IC50 (human orexin-1 receptor; [3]) [µM] | IC50 (human orexin-2 receptor; [4]) [µM] |
| --- | --- | --- | --- | --- |
| Cc1nc2sccn2c1C(=O)NC[C@@H]1C[C@@H]2CCC[C@@H]2N1C(=O)c1nc(C2CC2)sc1-c1cccc(C(F)(F)F)c1 [Example 7, 6-Methyl-imidazo[2,1-b]thiazole-5-carboxylic acid {(1S,3S,5S)-2-[2-cyclopropyl-5-(3-trifluoromethyl-phenyl)-thiazole-4-carbonyl]-2-azabicyclo[3.3.0]octane-3-ylmethyl}-amide] | 0.018 | 0.095 |  |  |
| Cc1nc(C(=O)N2[C@H](CNC(=O)c3cccc4c3CCO4)C[C@@H]3CCC[C@@H]32)c(-c2cccc(C(F)(F)F)c2)s1 [Example 16, 2,3-Dihydro-benzofuran-4-carboxylic acid {(1S,3S,5S)-2-[2-methyl-5-(3-trifluoromethyl-phenyl)-thiazole-4-carbonyl]-2-azabicyclo[3.3.0]octane-3-ylmethyl}-amide] |  |  | 0.011 | 0.012 |
| Cc1nc(C(=O)N2[C@H](CNC(=O)c3noc4ccccc34)C[C@@H]3CCC[C@@H]32)c(-c2cccc(Cl)c2)s1 [Example 9, Benzo[d]isoxazole-3-carboxylic acid {(1S,3S,5S)-2-[5-(3-chloro-phenyl)-2-methyl-thiazole-4-carbonyl]-2-azabicyclo[3.3.0]octane-3-ylmethyl}-amide] | 0.275 | 0.283 |  |  |
| Cc1nc(C(=O)N2[C@H](CNC(=O)c3cccc4c3CCO4)C[C@@H]3CCC[C@@H]32)c(-c2ccc(F)c(Br)c2)s1 [Example 19, 2,3-Dihydro-benzofuran-4-carboxylic acid {(1S,3S,5S)-2-[5-(3-bromo-4-fluoro-phenyl)-2-methyl-thiazole-4-carbonyl]-2-azabicyclo[3.3.0]octane-3-ylmethyl}-amide] |  |  | 0.037 | 0.032 |
| O=C(NC[C@@H]1C[C@@H]2CCC[C@@H]2N1C(=O)c1nc(C2CC2)sc1-c1ccccc1)c1cccc2c1CCO2 [Example 26, 2,3-Dihydro-benzofuran-4-carboxylic acid [(1S,3S,5S)-2-(2-cyclopropyl-5-phenyl-thiazole-4-carbonyl)-2-azabicyclo[3.3.0]octane-3-ylmethyl]-amide] |  |  | 0.048 | 0.041 |
| Cc1ccc(-c2sc(C)nc2C(=O)N2[C@H](CNC(=O)c3c(C)nc4sccn34)C[C@@H]3CCC[C@@H]32)cc1 [Example 1, 6-Methyl-imidazo[2,1-b]thiazole-5-carboxylic acid [(1S,3S,5S)-2-(2-methyl-5-p-tolyl-thiazole-4-carbonyl)-2-azabicyclo[3.3.0]octane-3-ylmethyl]-amide] | 0.017 | 0.04 |  |  |
